Measured values from ChEMBL document CHEMBL4390649, “Fine-tuning the neuroprotective and blood-brain barrier permeability profile of multi-target agents designed to prevent progressive mitochondrial dysfunction” (Eur J Med Chem, 2019).
pIC50: −log10 of the molar value. Active and inactive are the calls of the source. The rule behind the calls is not given here.

Key:
SH-SY5Y [1] = test: Neuroprotective activity against H2O2-induced oxidative damage in human SH-SY5Y cells assessed as reduction in cell damage at 50 uM pretreated for 24 hrs followed by H2O2 challenge measured after 30 mins by MTT assay relative to control; format: functional; parameters: scale not given: the % may be the effect or the level left
[2] = Cytotoxicity against human HepG2 cells assessed as cell metabolic activity at 10 uM incubated for 48 hrs by resazurin assay relative to control; format: ADME, cell-based; conditions: read-out: Activity
[3] = Cytotoxicity against human SH-SY5Y cells assessed as cell metabolic activity at 50 uM incubated for 24 hrs by MTT assay relative to control; format: ADME, cell-based; conditions: read-out: Activity
[4] = Electrochemical behavior of the compound assessed as redox potential corrected toward saturated Ag/AgCl reference electrode by differential pulse voltammetry
SH-SY5Y [5] = test: Neuroprotective activity against TBHP-induced oxidative damage in human SH-SY5Y cells assessed as increase in cell viability at 50 uM pretreated for 24 hrs followed by TBHP stimulation measured after 4 hrs by MTT assay relative to control; format: functional
SH-SY5Y [6] = test: Neuroprotective activity against H2O2-induced oxidative damage in human SH-SY5Y cells assessed as reduction in cell damage at 10 uM pretreated for 24 hrs followed by H2O2 challenge measured after 30 mins by MTT assay relative to control; format: functional; parameters: scale not given: the % may be the effect or the level left
SH-SY5Y [7] = test: Neuroprotective activity against TBHP-induced oxidative damage in human SH-SY5Y cells assessed as increase in cell viability at 10 uM pretreated for 24 hrs followed by TBHP stimulation measured after 4 hrs by MTT assay relative to control; format: functional, cell-based
[8] = Antioxidant activity assessed as ABTS radical scavenging activity measured after 15 mins by UV-Visible spectrophotometric based assay; format: functional
[9] = Cytotoxicity against human HepG2 cells assessed as cell metabolic activity at 50 uM incubated for 48 hrs by resazurin assay relative to control; format: ADME, cell-based; conditions: read-out: Activity
SH-SY5Y [10] = test: Neuroprotective activity against 6-OHDA-induced toxicity in human SH-SY5Y cells assessed as reduction in cell damage at 10 to 50 uM pretreated for 24 hrs followed by 6-OHDA challenge and measured after 24 hrs by MTT assay relative to control; format: functional
[11] = Metal chelating activity assessed as compound-Fe2+ complex formation at 100 uM incubated for 10 mins by ferrozine spectrophotometric assay
[12] = Electrochemical behavior of the compound assessed as redox potential corrected toward saturated Ag/AgCl reference electrode by cyclic voltammetry
[13] = Cytotoxicity against human SH-SY5Y cells assessed as cell metabolic activity at 10 uM incubated for 24 hrs by MTT assay relative to control; format: ADME, cell-based; conditions: read-out: Activity
SH-SY5Y [14] = test: Induction of ROS generation in human SH-SY5Y cells at 50 uM incubated for 24 hrs by DCFH-DA probe based fluorescence assay relative to control; format: functional
[15] = Antioxidant activity assessed as DPPH radical scavenging activity measured after 45 mins by UV-Visible spectrophotometric based assay; format: functional
[16] = Apparent permeability across apical to basolateral side in human CMEC/D3 cells at 100 uM incubated by UV-VIS spectroscopic method; format: ADME, cell-based; conditions: hcmec/d3, 100 µM, TDE = time-dependent effect
[17] = Apparent permeability across apical to basolateral side in human CMEC/D3 cells at 100 uM incubated up to 180 mins by UV-VIS spectroscopic method; format: ADME, cell-based; conditions: hcmec/d3, 3 h
[18] = Cytotoxicity against human CMEC/D3 cells assessed as reduction in cell viability at 50 to 100 uM incubated for 4 hrs by MTT assay relative to control; format: cell-based; conditions: hcmec/d3, 4 h

Compound | Activity (SH-SY5Y [1]) | viability at 48 h, 10 µM [2] | viability at 24 h, 50 µM [3] | Activity [4] | Activity (SH-SY5Y [5]) | Activity (SH-SY5Y [6]) | Activity (SH-SY5Y [7]) | pIC50 [8] | viability at 48 h, 50 µM [9] | Activity (SH-SY5Y [10]) | Activity [11] | Activity [12] | viability at 24 h, 10 µM [13] | Activity (SH-SY5Y [14]) | pIC50 [15] | permeability [16] | permeability [17] | Activity [18]
O=C(NCCCCCC[P+](c1ccccc1)(c1ccccc1)c1ccccc1)c1cc(O)c(O)c(O)c1.[Br-] | 70.8 - 83.3% | 89.4% | 98.2% | 559 mV | inactive | 70.8 - 83.3% | inactive | 5.19 | 88.5% | inactive | > 80% | 115 mV | 100% | Active | 4.85 |  |  | 
O=C(O)c1ccc(O)c(O)c1 [PROTOCATECHUIC ACID] |  |  |  | 234 mV |  |  |  | 4.58 |  |  |  | 234 mV |  |  | 4.38 |  |  | 
O=C(O)CCc1cc(O)c(O)c(O)c1 |  |  |  | 543 mV |  |  |  | 5.04 |  |  |  | 120 mV |  |  | 4.95 |  |  | 
CS(=O)(=O)[O-].O=C(CCc1cc(O)c(O)c(O)c1)NCCCCCCCCCC[P+](c1ccccc1)(c1ccccc1)c1ccccc1 | 70.8 - 83.3% | 106% | 96.3% | 537 mV | inactive | 70.8 - 83.3% | inactive | 4.92 | 108% | 66.5 - 70.2% | > 80% | 12 mV | 92.8% | Active | 4.63 | Tde | 33.1% | Non-Toxic
CS(=O)(=O)[O-].O=C(/C=C/c1cc(O)c(O)c(O)c1)NCCCCCCCCCC[P+](c1ccccc1)(c1ccccc1)c1ccccc1 | 70.8 - 83.3% | 105% | 101% | 741 mV | inactive | 70.8 - 83.3% | inactive | 5.12 | 108% | inactive | > 80% | 57 mV | 99% | Active | 4.86 |  |  | 
O=C(O)CCc1ccc(O)c(O)c1 [DIHYDROCAFFEIC ACID] |  |  |  | 216 mV |  |  |  | 4.62 |  |  |  | 112 mV |  |  | 4.61 |  |  | 
CS(=O)(=O)[O-].O=C(Cc1cc(O)c(O)c(O)c1)NCCCCCC[P+](c1ccccc1)(c1ccccc1)c1ccccc1 | inactive | 106% | 93.7% | 469 mV | inactive | inactive | inactive | 5.02 | 87.7% | Active | 95.3% | 58 mV | 90.6% | Active | 4.63 | Tde | 65.4% | Non-Toxic
CS(=O)(=O)[O-].O=C(CCc1ccc(O)c(O)c1)NCCCCCC[P+](c1ccccc1)(c1ccccc1)c1ccccc1 | Active | 104% | 97.5% | 132 mV | inactive |  | inactive | 4.55 | 99.3% | Active | > 80% | 132 mV | 93.5% | 83.1% | 4.25 | Tde | 24.6% | Non-Toxic
O=C(NCCCCCC[P+](c1ccccc1)(c1ccccc1)c1ccccc1)c1ccc(O)c(O)c1 |  | 97.4% | 96.9% | 219 mV | inactive | inactive | inactive | 4.68 | 90.3% | inactive | > 80% | 219 mV | 102% |  | 4.51 |  |  | 
CS(=O)(=O)[O-].O=C(Cc1cc(O)c(O)c(O)c1)NCCCCCCCCCC[P+](c1ccccc1)(c1ccccc1)c1ccccc1 | 70.8 - 83.3% | 102% | 95.3% | 594 mV | inactive | 70.8 - 83.3% | inactive | 5.12 | 93.6% | 66.5 - 70.2% | > 80% | 11 mV | 95.2% | Active | 4.68 | Tde | 27.7% | Non-Toxic
Cc1c(C)c2c(c(C)c1O)CCC(C)(C(=O)O)O2 (stereo unspecified) [TROLOX] |  | 5.99% | 3.62% | 113 mV |  |  |  | 4.61 | 5.99% |  |  | 113 mV | 3.62% |  | 4.51 |  |  | 
CS(=O)(=O)[O-].O=C(/C=C/c1ccc(O)c(O)c1)NCCCCCC[P+](c1ccccc1)(c1ccccc1)c1ccccc1 | 70.8 - 83.3% | 111% | 97.6% | 164 mV | inactive | 70.8 - 83.3% | inactive | 4.52 | 112% | inactive | > 80% | 164 mV | 103% |  | 4.53 |  |  | 
O=C(O)c1cc(O)c(O)c(O)c1 [GALLIC ACID] |  |  |  | 559 mV |  |  |  | 5.11 |  |  |  | 120 mV |  |  | 5.00 |  |  | 
O=C(NCCCCCCCCCC[P+](c1ccccc1)(c1ccccc1)c1ccccc1)c1cc(O)c(O)c(O)c1 | 70.8 - 83.3% | 108% | 101% | 725 mV | inactive | 70.8 - 83.3% | inactive | 5.13 | 108% | inactive | > 80% | 114 mV | 107% | Active | 4.99 |  |  | 
CS(=O)(=O)[O-].O=C(CCc1cc(O)c(O)c(O)c1)NCCCCCC[P+](c1ccccc1)(c1ccccc1)c1ccccc1 |  | 113% | 91.7% | 547 mV | inactive |  | inactive | 4.96 | 117% | Active | > 80% | 11 mV | 95.9% | Active | 4.69 | Tde | 23.7% | Non-Toxic
O=C(O)Cc1cc(O)c(O)c(O)c1 |  |  |  | 550 mV |  |  |  | 5.33 |  |  |  | 135 mV |  |  | 5.17 |  |  | 
O=C(O)/C=C/c1cc(O)c(O)c(O)c1 |  |  |  | 589 mV |  |  |  | 5.34 |  |  |  | 56 mV |  |  | 4.99 |  |  | 
O=C(O)/C=C/c1ccc(O)c(O)c1 [CAFFEIC ACID] |  |  |  | 168 mV |  |  |  | 4.69 |  |  |  | 168 mV |  |  | 4.55 |  |  | 
O=C(O)Cc1ccc(O)c(O)c1 [3,4-DIHYDROXYPHENYLACETIC ACID] |  |  |  | 270 mV |  |  |  | 4.74 |  |  |  | 122 mV |  |  | 4.58 |  |  | 
CS(=O)(=O)[O-].O=C(Cc1ccc(O)c(O)c1)NCCCCCC[P+](c1ccccc1)(c1ccccc1)c1ccccc1 | inactive | 103% | 96.9% | 141 mV | 22.3% |  | inactive | 4.57 | 100% | Active | > 80% | 141 mV | 95.3% | 81.3% | 4.26 | Tde | 71.9% | Non-Toxic
